pIC50: −log10 of the molar value.
Key:
[1] = tested on: U2OS cells containing DR-GFP reporter; test: DR-GFP gene conversion (HR) reporter assay; assay type: cell-based, human; conditions: 24-h treatment
Method: Figure 4 NSC-105808 inhibits HR repair and DSB end resection. (a) Analysis of HR efficiency with the DR-green fluorescent protein (GFP) assay. Representative images of flow cytometry analysis and bar graph showing percentage of GFP cells from at least three independent experiments. Each value represents the mean±s.d. (b, c) Analysis of RPA phosphorylation in U2OS cells treated with NSC-105808 (2 h, 0.3 μM) and/or camptothecin (CPT; 2 h, 1 μM). (b) Representative images of cells subjected to immunofluorescent staining of p-RPA and bar graph showing percentage of cells with positive p-RPA staining from three independent experiments. Each value represents the mean±s.d. (c) Western blot analysis of chromatin fraction with the indicated antibodies. (d) Analysis of colony formation by FANCD2 (+/+) and FANCD2 (−/−) cells treated with cisplatin and/or NSC-105808. Each value is relative to the untreated control group of each cell line. The graph represents the mean±s.e.m. from three independent experiments. *P<0.01.
The DR-green fluorescent protein, pCAGGS and pCBASce plasmids were kindly provided by Dr Maria Jasin (Memorial Sloan-Kettering Cancer Center, New York, NY, USA). […]
The GFP expressing plasmid (pEGFP-C1) was used for transfection efficiency control. […] Efficiency of HR and SSA was calculated by normalizing I-SceI-induced GFP expression with EGFP transfection-induced GFP expression. […]

[2] = target: T1, yDna2 (Saccharomyces cerevisiae, UniProt P38859); test: High-throughput fluorescence nuclease assay with yDna2 (triply labeled (dT)30 ssDNA); assay type: biochemical, yeast; conditions: yeast Dna2 0.09 nM; substrate 0.1 μM; Figure 3c; read-out: IC50 (yeast Dna2), dose-response in vitro
T1 construct: made in house
Method: The screen entailed the use of oligonucleotide (dT)30 having a reporter fluorescent moiety, 6-FAM on the 5′ end, and the dark quenching group, Iowa Black FQ, on the 3′ end. In addition, a second dark quencher ZEN was placed between the 9th and 10th base (Figure 2a). The fluorescence emitted by 6-FAM is quenched by FRET, but it increases when DNA is degraded by Dna2. […] The inhibitory activity of the compounds was determined as a reduction in fluorescent signal compared with the dimethylsulfoxide (DMSO) only control. […] We screened ~50 000 chemical compounds from six different libraries (Supplementary Table S1) to identify chemical inhibitors of the Dna2 nuclease activity. […] The DNA2 nuclease domain is well conserved among eukaryotes, and therefore we reasoned that inhibitors of yDna2 will likely also work with the human counterpart.
Initial screen, it was performed with yDna2.[22] Then, the top candidate compounds were tested on hDNA2. Identical reaction conditions were used for assaying the nuclease activity of yDna2 and hDNA2. […] The reaction buffer was 20 mM HEPES/NaOH, pH 7.5, 60 mM KCl, 1 mM DTT, 100 μg/ml bovine serum albumin and 0.05% Triton X-100. The nuclease assay was initiated by adding MgCl2 (3 mM final concentration). T5 nuclease was assayed in the buffer (50 mM potassium acetate, pH 7.9, 20 mM Tris-acetate, 10 mM magnesium acetate and 1 mM DTT) provided by the vendor (NEB, Ipswich, MA, USA). The concentration of the fluorogenic substrate was 0.1 μM. The optimal amount of yDna2, hDNA2 and T5 nuclease was determined by utilizing the Kaleidagraph software (Reading, PA, USA) to fit the data according to Michaelis Menton Kinetics (V=V0+Vmax*x/(Km+x)). […] The Z’ value was calculated as previously described.[50] Cell proliferation was determined using 4,6-diamidino-2-phenylindole staining followed by high-throughput microscopy in a 384-well plate setup. In brief, cells were fixed with formaldehyde, washed and stained with 4,6-diamidino-2-phenylindole and the number of nuclei in each well counted by automated microscopy. The data were analyzed as described.[51]

T1 sequence (P38859 whole entry): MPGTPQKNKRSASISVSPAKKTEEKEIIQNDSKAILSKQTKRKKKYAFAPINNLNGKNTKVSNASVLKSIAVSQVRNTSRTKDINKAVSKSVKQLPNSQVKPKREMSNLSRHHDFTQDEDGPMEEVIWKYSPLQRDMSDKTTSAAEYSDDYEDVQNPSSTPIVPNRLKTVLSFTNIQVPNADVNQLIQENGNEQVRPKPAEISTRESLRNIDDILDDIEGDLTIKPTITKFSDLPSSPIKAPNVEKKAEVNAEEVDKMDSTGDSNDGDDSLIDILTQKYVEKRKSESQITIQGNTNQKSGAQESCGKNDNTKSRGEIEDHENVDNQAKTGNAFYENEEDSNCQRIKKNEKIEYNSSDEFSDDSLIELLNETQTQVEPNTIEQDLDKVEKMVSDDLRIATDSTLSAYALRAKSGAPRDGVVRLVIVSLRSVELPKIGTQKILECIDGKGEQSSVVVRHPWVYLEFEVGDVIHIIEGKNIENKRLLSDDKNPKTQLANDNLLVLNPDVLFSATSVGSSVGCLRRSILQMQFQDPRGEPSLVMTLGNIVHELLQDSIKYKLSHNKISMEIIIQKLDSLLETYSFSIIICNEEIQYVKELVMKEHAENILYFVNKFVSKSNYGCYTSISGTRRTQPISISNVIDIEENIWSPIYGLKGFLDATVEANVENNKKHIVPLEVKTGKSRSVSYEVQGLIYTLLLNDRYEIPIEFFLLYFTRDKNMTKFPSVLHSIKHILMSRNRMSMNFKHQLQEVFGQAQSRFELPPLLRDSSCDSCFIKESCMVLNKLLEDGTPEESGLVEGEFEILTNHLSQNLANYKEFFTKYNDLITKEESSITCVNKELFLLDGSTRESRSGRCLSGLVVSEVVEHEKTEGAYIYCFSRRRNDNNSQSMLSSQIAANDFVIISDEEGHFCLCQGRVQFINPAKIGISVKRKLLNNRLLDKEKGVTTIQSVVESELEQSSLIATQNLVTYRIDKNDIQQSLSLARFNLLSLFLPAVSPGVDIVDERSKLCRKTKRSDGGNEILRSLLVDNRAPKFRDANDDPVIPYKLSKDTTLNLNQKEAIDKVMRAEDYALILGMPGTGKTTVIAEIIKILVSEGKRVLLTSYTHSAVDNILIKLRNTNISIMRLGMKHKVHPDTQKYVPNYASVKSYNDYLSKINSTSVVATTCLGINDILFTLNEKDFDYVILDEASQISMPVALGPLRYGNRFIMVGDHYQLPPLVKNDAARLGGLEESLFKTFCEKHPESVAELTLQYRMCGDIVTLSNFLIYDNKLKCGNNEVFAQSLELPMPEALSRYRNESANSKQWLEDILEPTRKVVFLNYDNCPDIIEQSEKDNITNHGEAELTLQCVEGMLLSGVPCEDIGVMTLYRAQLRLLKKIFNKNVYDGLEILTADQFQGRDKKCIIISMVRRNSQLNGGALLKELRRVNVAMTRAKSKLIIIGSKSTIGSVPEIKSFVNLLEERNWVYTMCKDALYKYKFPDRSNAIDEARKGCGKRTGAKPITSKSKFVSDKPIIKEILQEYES

SMILES	DSB repair by gene conversion [1]	pIC50 [2]
NC1=C(Br)C(=O)c2ncccc2C1=O [NSC-105808, 6-amino-7-bromoquinoline-5,8-dione]	significantly reduced	5.70
O=C1C(=O)c2cc([N+](=O)[O-])ccc2-c2ccccc21 [NSC-5195242, 2-nitrophenanthrene-9,10-dione]	–	5.41

— article PMC5520492, “Inhibition of DNA2 nuclease as a therapeutic strategy targeting replication stress in cancer cells” (Oncogenesis, 2017)
